From patent US20240269129A1, “GLYCOGEN SYNTHASE KINASE 3 (GSK3) INHIBITORS FOR TREATING CTNNB1 SYNDROME” (Trustees of Tufts College, priority 2021, published 2024)
“Also recorded” adds a separate entry of the source.

Columns and labels:
GSK3α = GSK3α (Homo sapiens, UniProt P49840); assay: GSK3α inhibition, motility-shift microfluidic assay (Caliper) at Km of ATP; assay type: biochemical
Experimental: FIG. 12. […] (a) General synthetic scheme for synthesis of the pyrazolo-tetrahydroquinolinone scaffold. (b) IC50 GSK3α and GSK3β values for inhibition were determined at Km of ATP in a motility-shift microfluidic assay (Caliper, MA) measuring phosphorylation of a synthetic substrate. Values are average of three or more experiments. Data are shown as IC50 values in μM±standard deviation. Compounds were tested in duplicate in a 12-point dose curve with 3-fold dilution starting at 33.3 μM. […] Each inhibitor was screened against 311 kinases at a 10 μM concentration.

[1] = system: β-catenin heterozygous mice; assay: Contextual fear conditioning (learning) in β-catenin heterozygous mice; assay type: in vivo, mouse; conditions: 30 mg/kg doses, young adult βcatHet mice
Experimental: FIG. 2. […] Classic spatial learning task that pairs association of a particular context with a mild foot shock; freezing in the context is measured as an indicator of learning; n=26 control, 24 BcatHet; p<0.0001 Repeated Measure ANOVA; **p<0.01, ***p<0.001 multiple comparison t-test.
(§1) Drug treatments using small molecule GSK3α and GSK3β inhibitors were tested in vivo, for safe and effective amelioration of the phenotypes by assaying β-catenin protein levels, learning and motor skills effects of drug vs. vehicle on CTNNB1 heterozygote mice and control littermates. In an example, a study includes administering the small molecule GSK3 inhibitor in sequential daily doses to the βcatHet mice. The daily doses can be administered, for example, for five days, or four days, or any other number of days. At some time after the last dose, such as 1 hour, the grip strength test can be administered. Additionally, the contextual fear conditioning can be performed. Sometime later, such as 1 day later, the contextual fear conditioning tests can be performed.
(§2) Mice were administered 30 mg/kg doses of the respective compounds in the present Example. Samples of the brain and muscle from control mice, βcatHet mice (untreated), and βcatHet mice (treated) were tested for levels of β-catenin.

GSK3β = GSK3β (Homo sapiens, UniProt P49841); assay: GSK3β inhibition, motility-shift microfluidic assay (Caliper) at Km of ATP; assay type: biochemical; conditions: for IC50: at Km of ATP
GSK3β, sequence (P49841 whole entry): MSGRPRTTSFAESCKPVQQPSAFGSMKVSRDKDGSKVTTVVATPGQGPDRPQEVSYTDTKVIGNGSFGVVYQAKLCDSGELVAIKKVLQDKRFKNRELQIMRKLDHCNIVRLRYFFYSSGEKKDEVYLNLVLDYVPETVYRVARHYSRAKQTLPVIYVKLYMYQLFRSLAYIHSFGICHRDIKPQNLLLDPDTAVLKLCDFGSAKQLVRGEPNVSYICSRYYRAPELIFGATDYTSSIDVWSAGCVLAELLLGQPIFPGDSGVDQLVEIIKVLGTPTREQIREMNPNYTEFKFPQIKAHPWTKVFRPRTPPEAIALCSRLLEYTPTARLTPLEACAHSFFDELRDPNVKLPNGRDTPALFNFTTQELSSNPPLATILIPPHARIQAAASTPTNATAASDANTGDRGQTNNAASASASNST
Experimental: FIG. 12. Design and characterization of first paralog selective inhibitors of GSK3α and GSK3β. (a) General synthetic scheme for synthesis of the pyrazolo-tetrahydroquinolinone scaffold. (b) IC50 GSK3α and GSK3β values for inhibition were determined at Km of ATP in a motility-shift microfluidic assay (Caliper, MA) measuring phosphorylation of a synthetic substrate. Values are average of three or more experiments. Data are shown as IC50 values in μM±standard deviation. Compounds were tested in duplicate in a 12-point dose curve with 3-fold dilution starting at 33.3 μM. […] Each inhibitor was screened against 311 kinases at a 10 μM concentration. Kinases with >50% inhibition are depicted (percentage inhibition proportional to size of red dot).
Structure-based design has been aimed towards maximizing steric requirement at the R position and the corresponding differences within the selectivity pockets of GSK3α and GSK3β. […] These modifications and increased binding affinities were tolerant of simple substitutions on the phenyl ring (cf. BRD0320).

[2] = system: β-catenin heterozygous mice; assay: Muscle grip strength test in β-catenin heterozygous mice; assay type: in vivo, mouse; conditions: 30 mg/kg doses, young adult βcatHet mice
Experimental: as §1, §2

β-catenin protein levels = β-catenin protein levels in brain and skeletal muscle of treated β-catenin heterozygous mice, quantitative immunoblotting; assay type: in vivo, mouse; conditions: 30 mg/kg doses, young adult βcatHet mice
Experimental: as §1, §2

[3] = system: CTNNB1 heterozygous iPSCs; assay: β-catenin and DKK1 protein levels in CTNNB1 heterozygous iPSCs, pilot dose-response, quantitative immunoblotting; assay type: cell-based, human
Excerpt: FIG. 14. FIG. 1. GSK3α,β inhibitors increase β-cat protein levels in (a) human CTNNB1 heterozygous glutamatergic neurons treated with BRD0320, relative to vehicle-treated het neurons, and (b) CTNNB1 het iPSCs treated with BRD0320 and LY2090314 at the indicated concentrations. Wnt target, DKK1 protein levels show similar increases to β-cat. Histograms showing comparison to (a) WT neuron levels set as 1 and (b) vehicle-treated het iPSC levels set as 1. LY2090314 increases β-cat protein levels at 10× lower concentration relative to BRD0320.
A human pluripotent stem cell line (iPSC) that lacks any pathogenic variants was made heterozygous for CTNNB1 via CRISPR-Cas9 gene editing of one allele. A premature termination (PTC+1) frameshift was introduced based on a CTNNB1 syndrome patient mutation. Haploinsufficiency was confirmed. The iPSCs were differentiated to cortical glutamatergic neurons by transfection with the transcription factor human neurogenin 2. […] As shown in FIG. 14 (a), beta-catenin protein levels were measured 24 hrs later by quantitative immunoblotting in the GSK3 inhibitor treated CTNNB1 heterozygous neurons, relative to vehicle-treated heterozygous neurons and wildtype neurons.
Beta-catenin protein levels were measured 24 hrs later by quantitative immunoblotting in the GSK3 inhibitor treated CTNNB1 heterozygous iPSCs, relative to vehicle-treated heterozygous iPSCs.

GSK3α, sequence (P49840 whole entry): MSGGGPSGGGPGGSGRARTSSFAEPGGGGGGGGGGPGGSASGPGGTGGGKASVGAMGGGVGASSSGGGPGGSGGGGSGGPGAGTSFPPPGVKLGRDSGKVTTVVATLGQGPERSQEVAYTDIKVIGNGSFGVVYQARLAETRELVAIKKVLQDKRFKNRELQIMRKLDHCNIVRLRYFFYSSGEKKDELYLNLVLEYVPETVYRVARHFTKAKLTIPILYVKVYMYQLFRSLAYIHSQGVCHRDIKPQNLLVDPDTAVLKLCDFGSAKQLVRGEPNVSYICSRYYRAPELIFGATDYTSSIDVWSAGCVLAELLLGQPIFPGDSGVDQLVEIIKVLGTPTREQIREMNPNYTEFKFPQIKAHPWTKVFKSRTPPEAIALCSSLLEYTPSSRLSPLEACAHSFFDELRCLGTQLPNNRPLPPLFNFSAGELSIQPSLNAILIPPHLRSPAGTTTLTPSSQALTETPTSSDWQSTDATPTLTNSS

Row | Structure (SMILES) | learning (contextual fear conditioning) [1] | IC50 (GSK3β) [nM] | muscle grip strength [2] | other results
1 | CC1(C)CC(=O)C2=C(C1)Nc1n[nH]c(C3CC3)c1[C@]2(C)c1ccccc1 [BRD0209] |  |  |  | potency for the two paralogs GSK3α and GSK3β (GSK3α): Equipotency
2 | CC[C@@]1(c2ccccc2)C2=C(CC(C)(C)CC2=O)Nc2[nH]ncc21 [BRD0705] | did not display a significant trend to improvements; also recorded: slight trend (not significant) toward improvements | 515 | did not display a significant trend to improvements; also recorded: slight trend (not significant) toward improvements | 
3 | CC(C)(C)Cc1[nH]nc2c1[C@](C)(c1ccccc1)C1=C(CC(C)(C)CC1=O)N2 [BRD3731] | slight significant improvement | 15 | significant increase; also recorded: trend toward improvement | IC50 (GSK3α; at Km of ATP): 215 nM; β-catenin protein levels in β-catenin heterozygous mouse brain and skeletal muscle relative to vehicle treated heterozygote (β-catenin protein levels): significantly increased; selectivity for GSK3β (GSK3β): 14 fold
4 | O=C1NC(=O)C(c2cnc3ccccn23)=C1c1cn2c3c(cc(F)cc13)CN(C(=O)N1CCCCC1)CC2 [LY2090314, 3-(9-fluoro-2-(piperidine-1-carbonyl)-1,2,3,4-tetrahydro-[1,4]diazepino[6,7,1-hi]indol-7-yl)-4-(imidazo[1,2-a]pyridin-3-yl)-1H-pyrrole-2,5-dione] |  |  |  | β-cat protein levels in CTNNB1 het iPSCs relative to vehicle-treated het iPSCs ([3]; BRD0320 10 μM, 30 μM, LY2090314 0.1 μM, 0.3 μM, 24 hrs): increase; concentration that increases β-cat protein levels, relative to BRD0320 ([3]; CTNNB1 het iPSCs): 10 × lower
